Experimental data from PubChem BioAssay AID2060495 (Molecular Pharmacology Branch, DTP, NCI, 2025).

System: 521955-158-R2-J5-PDC complex spheroid viability
Test: Anticancer human tumor 521955-158-R2-J5-PDC patient-derived pancreatic carcinoma cell line growth inhibition [GQUAD]
Conditions: for IC50: curve of first compound; for viability, T/C: stronger effect = lower value; active = viability on the fitted dose curve at most 10% of control; inactive = the rest
Outline: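 Viability of tumor cells grown as complex spheroids with endothelial and stromal cells, exposed to drug combinations. Top concentration at or near clinical Cmax (else 10 microM), diluted in half-log increments.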

[1] = second compound 0.0316 µM, first compound 0.0316 µM
[2] = second compound 0.0316 µM, first compound 0.1 µM
[3] = second compound 0.0316 µM, first compound 0.316 µM
[4] = second compound 0.0316 µM, first compound 1 µM
[5] = second compound 0.0316 µM, first compound 3.16 µM
[6] = second compound 0.0316 µM, first compound 10 µM
[7] = second compound 0.1 µM, first compound 0.0316 µM
[8] = second compound 0.1 µM, first compound 0.1 µM
[9] = second compound 0.1 µM, first compound 0.316 µM
[10] = second compound 0.1 µM, first compound 1 µM
[11] = second compound 0.1 µM, first compound 3.16 µM
[12] = second compound 0.1 µM, first compound 10 µM
[13] = second compound 0.316 µM, first compound 0.0316 µM
[14] = second compound 0.316 µM, first compound 0.1 µM
[15] = second compound 0.316 µM, first compound 0.316 µM
[16] = second compound 0.316 µM, first compound 1 µM
[17] = second compound 0.316 µM, first compound 3.16 µM
[18] = second compound 0.316 µM, first compound 10 µM
[19] = second compound 1 µM, first compound 0.0316 µM
[20] = second compound 1 µM, first compound 0.1 µM
[21] = second compound 1 µM, first compound 0.316 µM
[22] = second compound 1 µM, first compound 1 µM
[23] = second compound 1 µM, first compound 3.16 µM
[24] = second compound 1 µM, first compound 10 µM
[25] = second compound 3.16 µM, first compound 0.0316 µM
[26] = second compound 3.16 µM, first compound 0.1 µM
[27] = second compound 3.16 µM, first compound 0.316 µM
[28] = second compound 3.16 µM, first compound 1 µM
[29] = second compound 3.16 µM, first compound 3.16 µM
[30] = second compound 3.16 µM, first compound 10 µM
[31] = second compound 10 µM, first compound 0.0316 µM
[32] = second compound 10 µM, first compound 0.1 µM
[33] = second compound 10 µM, first compound 0.316 µM
[34] = second compound 10 µM, first compound 1 µM
[35] = second compound 10 µM, first compound 3.16 µM
[36] = second compound 10 µM, first compound 10 µM
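Note: spheroids exposed to agents for one week before reading.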
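Throughout, for viability, T/C: 100% = DMSO vehicle control viability.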

CC(C)(O)C1CCC(Nc2ccc3ncc(-c4cccc(C(F)(F)F)c4)n3n2)CC1 (stereo not drawn) + CN(C)c1ccc(Nc2c3ccc(NC(=O)CCN4CCCC4)cc3nc3cc(NC(=O)CCN4CCCC4)ccc23)cc1
1800 nM: IC50 (second compound 3.16 µM)
2010 nM: IC50 (second compound 0.1 µM) | IC50 (second compound 1 µM)
2060 nM: IC50 (second compound 0.0316 µM)
2050 nM: IC50 (second compound 0.316 µM)
inactive: viability, T/C [1] 102% | viability, T/C [2] 107% | viability, T/C [3] 105% | viability, T/C [4] 111% | viability, T/C [5] 13.1% | viability, T/C [6] 19.7% | viability, T/C [7] 101% | viability, T/C [8] 103% | viability, T/C [9] 98.5% | viability, T/C [10] 117% | viability, T/C [11] 10.4% | viability, T/C [12] 18.7% | viability, T/C [13] 106% | viability, T/C [14] 88% | viability, T/C [15] 113% | viability, T/C [16] 113% | viability, T/C [17] 16.1% | viability, T/C [18] 17.5% | viability, T/C [19] 95.4% | viability, T/C [20] 107% | viability, T/C [21] 95.8% | viability, T/C [22] 116% | viability, T/C [23] 15.1% | viability, T/C [24] 13.6% | viability, T/C [25] 82% | viability, T/C [26] 87.3% | viability, T/C [27] 79.2% | viability, T/C [28] 99.5% | viability, T/C [29] 13.8% | viability, T/C [30] 15% | viability, T/C [31] 70.4% | viability, T/C [32] 73.1% | viability, T/C [33] 64.6% | viability, T/C [34] 62.2%
1280 nM: IC50 (second compound 10 µM)
active: viability, T/C [35] 6.61% | viability, T/C [36] 1.12%

O=C(NO)c1cnc(N2CCN(S(=O)(=O)c3ccc4ccccc4c3)CC2)nc1 + Cc1[nH]c2ccc(F)cc2c1-c1nc2c3cccnc3c3ncccc3c2[nH]1
758 nM: IC50 (second compound 0.0316 µM)
inactive: viability, T/C [1] 115% | viability, T/C [2] 124% | viability, T/C [3] 84.3% | viability, T/C [4] 41.8% | viability, T/C [7] 99.1% | viability, T/C [8] 142% | viability, T/C [9] 111% | viability, T/C [10] 48.5% | viability, T/C [13] 100% | viability, T/C [14] 137% | viability, T/C [15] 113% | viability, T/C [16] 72.3% | viability, T/C [19] 101% | viability, T/C [20] 132% | viability, T/C [21] 120% | viability, T/C [22] 69.3% | viability, T/C [25] 96.8% | viability, T/C [26] 123% | viability, T/C [27] 105% | viability, T/C [28] 75.9% | viability, T/C [31] 99.1% | viability, T/C [32] 106% | viability, T/C [33] 101% | viability, T/C [34] 97.8%
1430 nM: IC50 (second compound 0.316 µM)
1380 nM: IC50 (second compound 1 µM)
active: viability, T/C [5] 0.18% | viability, T/C [6] 0.17% | viability, T/C [11] 0.18% | viability, T/C [12] 0.23% | viability, T/C [17] 0.17% | viability, T/C [18] 0.17% | viability, T/C [23] 0.29% | viability, T/C [24] 0.13% | viability, T/C [29] 0.29% | viability, T/C [30] 0.48% | viability, T/C [35] 0.55% | viability, T/C [36] 0.36%
1490 nM: IC50 (second compound 3.16 µM)
1760 nM: IC50 (second compound 10 µM)
966 nM: IC50 (second compound 0.1 µM)

CC1COCCN1c1cc(-c2ccnn2C)c2ccnc(-c3ccn[nH]3)c2n1 (stereo not drawn) + Cc1[nH]c2ccc(F)cc2c1-c1nc2c3cccnc3c3ncccc3c2[nH]1
inactive: viability, T/C [1] 81% | viability, T/C [2] 16.8% | viability, T/C [3] 10.3% | viability, T/C [4] 13.1% | viability, T/C [5] 18.4% | viability, T/C [6] 18.2% | viability, T/C [7] 73.7% | viability, T/C [8] 20.6% | viability, T/C [9] 8.98% | viability, T/C [10] 12.4% | viability, T/C [11] 18.1% | viability, T/C [12] 18.8% | viability, T/C [13] 84.4% | viability, T/C [14] 16.7% | viability, T/C [15] 13.3% | viability, T/C [16] 12.7% | viability, T/C [17] 18.5% | viability, T/C [18] 19.8% | viability, T/C [19] 90.1% | viability, T/C [20] 16.1% | viability, T/C [21] 9.88% | viability, T/C [22] 11.1% | viability, T/C [23] 19.8% | viability, T/C [24] 21.6% | viability, T/C [25] 88.1% | viability, T/C [26] 15.8% | viability, T/C [27] 9.58% | viability, T/C [28] 11.2% | viability, T/C [29] 21.6% | viability, T/C [30] 25% | viability, T/C [31] 77.7% | viability, T/C [32] 16% | viability, T/C [33] 10.9% | viability, T/C [34] 15.9% | viability, T/C [35] 19.3% | viability, T/C [36] 24%
56.8 nM: IC50 (second compound 0.316 µM)
52.6 nM: IC50 (second compound 0.1 µM)
58.4 nM: IC50 (second compound 3.16 µM)
55.1 nM: IC50 (second compound 0.0316 µM)
53.5 nM: IC50 (second compound 10 µM)
59 nM: IC50 (second compound 1 µM)

COc1cccc2c1C(=O)c1c(O)c3c(c(O)c1C2=O)CC(O)(C(=O)CO)CC3OC1CC(N)C(O)C(C)O1 (stereo not drawn) + Cc1cnc(CNC(=O)c2c(=O)c3ccc(N4CCCN(C)CC4)nc3n3c2sc2ccccc23)cn1
127 nM: IC50 (second compound 0.1 µM)
< 31.6 nM: IC50 (second compound 0.316 µM) | IC50 (second compound 1 µM) | IC50 (second compound 3.16 µM) | IC50 (second compound 10 µM)
inactive: viability, T/C [1] 78.2% | viability, T/C [2] 48% | viability, T/C [3] 38.4% | viability, T/C [4] 10.9% | viability, T/C [7] 53.3% | viability, T/C [8] 59.6% | viability, T/C [9] 26.3% | viability, T/C [13] 36.3% | viability, T/C [14] 37.1% | viability, T/C [15] 20.9% | viability, T/C [19] 20.7% | viability, T/C [20] 20.1% | viability, T/C [21] 14.5% | viability, T/C [25] 18.5% | viability, T/C [26] 18.4% | viability, T/C [27] 15% | viability, T/C [31] 18.4% | viability, T/C [32] 14.4% | viability, T/C [33] 16.2%
active: viability, T/C [5] 4.19% | viability, T/C [6] 0.5% | viability, T/C [10] 10.6% | viability, T/C [11] 1.38% | viability, T/C [12] 0.74% | viability, T/C [16] 8.92% | viability, T/C [17] 0.18% | viability, T/C [18] 0.39% | viability, T/C [22] 8.17% | viability, T/C [23] 0.08% | viability, T/C [24] 0.07% | viability, T/C [28] 5.89% | viability, T/C [29] 0.12% | viability, T/C [30] 0.13% | viability, T/C [34] 4.97% | viability, T/C [35] 0.21% | viability, T/C [36] 0.19%
113 nM: IC50 (second compound 0.0316 µM)
